For 28 compounds, inhibition results are on record in ChEMBL document CHEMBL5518237, “Design of Novel 2-Phenylquinazolin-4-amines as Selective CYP1B1 Inhibitors for Overcoming Paclitaxel Resistance in A549 Cells” (J Med Chem, 2024).

Data set [1] concerns the target T1, CYP1B1 (Homo sapiens, UniProt Q16678).
T1 sequence (Q16678 whole entry): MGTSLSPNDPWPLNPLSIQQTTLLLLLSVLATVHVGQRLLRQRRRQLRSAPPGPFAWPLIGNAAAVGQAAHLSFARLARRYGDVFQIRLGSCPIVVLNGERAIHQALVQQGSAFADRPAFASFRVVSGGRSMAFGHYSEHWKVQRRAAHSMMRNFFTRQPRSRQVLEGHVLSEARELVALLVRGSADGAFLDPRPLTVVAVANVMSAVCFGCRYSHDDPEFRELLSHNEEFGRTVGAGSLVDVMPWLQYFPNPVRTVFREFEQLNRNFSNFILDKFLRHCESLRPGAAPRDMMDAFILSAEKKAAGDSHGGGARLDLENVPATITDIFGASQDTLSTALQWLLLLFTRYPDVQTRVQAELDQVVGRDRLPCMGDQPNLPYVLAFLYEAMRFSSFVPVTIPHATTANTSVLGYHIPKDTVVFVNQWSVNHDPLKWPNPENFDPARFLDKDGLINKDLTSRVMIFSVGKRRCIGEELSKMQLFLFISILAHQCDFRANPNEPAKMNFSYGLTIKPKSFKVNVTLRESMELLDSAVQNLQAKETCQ
Nature of the data set: Inhibition of human recombinant CYP1B1 using 7-ethoxyresorufin as substrate at 1 uM preincubated with enzyme for 5 mins followed by fluorescent substrate and NADPH addition and measured after 35 mins by EROD assay. Format: ADME. The following applies: recombinant CYP1B1, probe 7-ethoxyresorufin, time 40 min.

The target in data set [2] is T1, CYP1B1. Nature of the data set: Inhibition of human recombinant CYP1B1 using 7-ethoxyresorufin as substrate at 0.01 uM preincubated with enzyme for 5 mins followed by fluorescent substrate and NADPH addition and measured after 35 mins by EROD assay. Format: ADME. The following applies: recombinant CYP1B1, probe 7-ethoxyresorufin, time 40 min.

One may read the inhibition as the relative decrease from the control value, in per cent.

In the case of `CCCCNc1nc(-c2ccc(I)cc2)nc2ccccc12`, on CYP1B1 [1], the inhibition at 35 min, 1 µM was determined as 86.4%. For the same compound, the inhibition at 35 min, 0.01 µM on CYP1B1 [2] came to 21.8%.

Regarding `Nc1nc(-c2cccc(Br)c2)nc2c1ccc1ccccc12`, the inhibition at 35 min, 1 µM on CYP1B1 [1] amounted to 93.8%. In addition, on CYP1B1 [2], the inhibition at 35 min, 0.01 µM is -12.8%.

On to `Nc1nc(-c2cccc(C(=O)O)c2)nc2ccccc12`, for which, at CYP1B1 [1], the inhibition at 35 min, 1 µM was determined as 10.2%. Besides, at CYP1B1 [2], the inhibition at 35 min, 0.01 µM was 22.4%.

As for `Nc1nc(-c2ccc(Br)nc2)nc2ccccc12`, the inhibition at 35 min, 1 µM at CYP1B1 [1] came out at 73.4%. For the same compound, on CYP1B1 [2], the inhibition at 35 min, 0.01 µM stood at 12.8%.

Take `CCCNc1nc(-c2ccc(I)cc2)nc2ccccc12`: at CYP1B1 [1], the inhibition at 35 min, 1 µM worked out at 94.2%. In addition, the inhibition at 35 min, 0.01 µM at CYP1B1 [2] is 67.8%.

In the case of `Nc1nc(-c2cccc(Cl)c2)nc2ccccc12`, the inhibition at 35 min, 1 µM at CYP1B1 [1] was found to be 74.4%. The inhibition at 35 min, 0.01 µM at CYP1B1 [2] was 25.8%.

For `Nc1nc(-c2cccc(F)c2)nc2c1ccc1ccccc12`, on CYP1B1 [1], the inhibition at 35 min, 1 µM was 94.5%. The inhibition at 35 min, 0.01 µM at CYP1B1 [2] is 10.5%.

As for `Cc1ccc(-c2nc(N)c3ccc4ccccc4c3n2)cc1`, the inhibition at 35 min, 1 µM on CYP1B1 [1] came out at 75.3%. At CYP1B1 [2], the inhibition at 35 min, 0.01 µM is -13.1%.

`Ic1ccc(-c2nc(Nc3ccccc3)c3ccccc3n2)cc1`: the inhibition at 35 min, 1 µM at CYP1B1 [1] turned out to be 60.4%. Besides, at CYP1B1 [2], the inhibition at 35 min, 0.01 µM was 7.25%.

In the case of `Nc1nc(-c2ccccc2)nc2c1ccc1ccccc12`, the inhibition at 35 min, 1 µM on CYP1B1 [1] came out at 93.5%. For the same compound, the inhibition at 35 min, 0.01 µM on CYP1B1 [2] worked out at 6.15%.

Regarding `COc1cccc(-c2nc(N)c3ccccc3n2)c1`, the inhibition at 35 min, 1 µM at CYP1B1 [1] is 91.7%. Further, the inhibition at 35 min, 0.01 µM at CYP1B1 [2] was 10.1%.

As to `Nc1nc(-c2ccc(Oc3ccc(Cl)cc3Cl)cc2)nc2ccccc12`, the inhibition at 35 min, 1 µM on CYP1B1 [1] was 27.6%. In addition, the inhibition at 35 min, 0.01 µM at CYP1B1 [2] was found to be 1.94%.

On to `Nc1nc(-c2ccc(Cl)cc2)nc2c1ccc1ccccc12`, for which, on CYP1B1 [1], the inhibition at 35 min, 1 µM was 95.4%. Moreover, the inhibition at 35 min, 0.01 µM on CYP1B1 [2] is 69.4%.

On to `Ic1ccc(-c2nc(NCc3ccccc3)c3ccccc3n2)cc1`, for which the inhibition at 35 min, 1 µM at CYP1B1 [1] is 91.2%. At CYP1B1 [2], the inhibition at 35 min, 0.01 µM was determined as 2%.

Regarding `COC(=O)c1ccc(-c2nc(N)c3ccccc3n2)cc1`, the inhibition at 35 min, 1 µM at CYP1B1 [1] worked out at 92.7%. Besides, the inhibition at 35 min, 0.01 µM on CYP1B1 [2] was 15.9%.

In the case of `Nc1nc(-c2ccc(F)cc2)nc2ccccc12`, the inhibition at 35 min, 1 µM at CYP1B1 [1] was determined as 80.7%. For the same compound, the inhibition at 35 min, 0.01 µM on CYP1B1 [2] was 3.73%.

Take `Nc1nc(-c2cccc(Cl)c2)nc2c1ccc1ccccc12`: the inhibition at 35 min, 1 µM at CYP1B1 [1] is 94.2%. Further, the inhibition at 35 min, 0.01 µM on CYP1B1 [2] is 14%.

`COC(=O)c1cccc(-c2nc(N)c3ccccc3n2)c1`: the inhibition at 35 min, 1 µM at CYP1B1 [1] is 1.98%. Besides, on CYP1B1 [2], the inhibition at 35 min, 0.01 µM came out at 28.4%.

With `Nc1nc(-c2ccc(C(=O)O)cc2)nc2ccccc12`, the inhibition at 35 min, 1 µM on CYP1B1 [1] is -2.32%. The inhibition at 35 min, 0.01 µM at CYP1B1 [2] was found to be 20.2%.

Take `NCCNc1nc(-c2ccc(I)cc2)nc2ccccc12`: the inhibition at 35 min, 1 µM on CYP1B1 [1] was 39.5%. The inhibition at 35 min, 0.01 µM at CYP1B1 [2] is -6.11%.

With `Nc1nc(-c2ccc(I)cc2)nc2c1ccc1ccccc12`, at CYP1B1 [1], the inhibition at 35 min, 1 µM worked out at 88.5%. Also, the inhibition at 35 min, 0.01 µM on CYP1B1 [2] came out at 63.1%.

On to `Nc1nc(-c2cccc(F)c2)nc2ccccc12`, for which, at CYP1B1 [1], the inhibition at 35 min, 1 µM was 78.9%. Moreover, the inhibition at 35 min, 0.01 µM at CYP1B1 [2] is -1.45%.

For the compound `Ic1ccc(-c2nc(N3CCOCC3)c3ccccc3n2)cc1`, at CYP1B1 [1], the inhibition at 35 min, 1 µM was 93.8%. For the same compound, the inhibition at 35 min, 0.01 µM on CYP1B1 [2] was found to be 51.8%.

Regarding `Ic1ccc(-c2nc(N3CCCC3)c3ccccc3n2)cc1`, the inhibition at 35 min, 1 µM at CYP1B1 [1] was found to be 94.9%. In addition, at CYP1B1 [2], the inhibition at 35 min, 0.01 µM was found to be 39.8%.

Regarding `Nc1nc(-c2ccc(F)cc2)nc2c1ccc1ccccc12`, the inhibition at 35 min, 1 µM on CYP1B1 [1] was 95%. The inhibition at 35 min, 0.01 µM at CYP1B1 [2] is 11%.

On to `O=c1[nH]c(-c2ccc(Br)cc2)nc2ccccc12`, for which, at CYP1B1 [1], the inhibition at 35 min, 1 µM amounted to 94.5%. Also, the inhibition at 35 min, 0.01 µM at CYP1B1 [2] amounted to 69.5%.

In the case of `Nc1nc(-c2cccc(Br)c2)nc2ccccc12`, at CYP1B1 [1], the inhibition at 35 min, 1 µM amounted to 55.4%. Further, the inhibition at 35 min, 0.01 µM at CYP1B1 [2] is 13.2%.

In the case of `COc1ccc(-c2nc(N)c3ccc4ccccc4c3n2)cc1`, the inhibition at 35 min, 1 µM at CYP1B1 [1] is 95.2%. Besides, the inhibition at 35 min, 0.01 µM at CYP1B1 [2] turned out to be 44.2%.
